These results are taken from US20130289119A1, “FORMULATION COMPRISING ARGININE, USE AND PREPARATION THEREOF” (OSPEDALE SAN RAFFAELE S.R.L., priority 2010, published 2013).

SMILES strings stand for the structures.

The procedure of this data set: In the present invention, the bio-availability and the vascular and metabolic effect of an oral administration of L-arginine (6.6 g) contained in the formulation of the invention (6 biscuits) compared either to the same food preparation (6 biscuits) prepared without the addition of L-arginine or to 6.6 g of powdered L-arginine were evaluated in healthy subjects.
Seven healthy subjects (2M/5F) participated in the study.
A complete medical history and a physical examination including height, weight, waist and hip circumferences and blood pressure measurements were taken for each subject. It was asked to all subjects to follow a 2000 kcal/die standard diet, according to LARN (Livelli di Assunzione Giornalieri Raccomandati di Nutrienti per la Popolazione Italiana) recommendations and to complete a 3 day food diary (two working days and one holiday day) before every test to obtain accurate information on short-term food intake. Food diaries were elaborated with a dedicated software to decode foods (Nutritionist Pro 2.5, Axial System, Stafford, Tex.), modified introducing the L-arginine contents, obtained from INRAN and USDA database, in more than 700 different foods items.
The portion of 6 biscuits further contained a total amount of 21.9 g of carbohydrates (17.9 g of starch and 4.0 g of sugars), 3.6 g of proteins, 7.5 g of fats and 4.3 g of fibers. A fixed amount of 250 ml of natural water was taken with the food preparation. […] A fixed amount of 250 ml of natural water was taken with the food preparation. • The third test consisted in the oral administration of 6.6 g of powdered L-arginine diluted in 250 ml of natural water. The Study Design is represented in FIG. 2. After an overnight fast, a 20-gauge plastic cannula (Abbocath T; Abbocath, Ireland LTD, Sling, Ireland) was inserted in a large antecubital vein for intermittent sampling. Samples for the evaluation of glucose, insulin, NOx and L-arginine levels were evaluated at 0, 30, 60, 90, 120, 180 and 240 minutes. c-GMP levels were evaluated at 0, 60, 120, 180 and 240 minutes.
Basal blood pressure was taken in supine position after 10 min of rest, and the mean of two measurements was used as the value, after that blood pressure was also taken at time 0, 120, 180 and 240 minutes. Forearm blood flow (FBF) was measured by strain-gauge venous occlusion plethysmography. Before any measurement was taken, the hand circulation was occluded using a wrist cuff inflated to 240 mmHg. Baseline blood flow was calculated as the mean of at least three values. Reactive hyperaemia (endothelium-dependent vasodilation) was measured after the release of a 5-min arterial occlusion, produced by inflating a standard sphygmomanometer cuff on the upper arm to 100 mmHg above systolic blood pressure (SBP). These measurement were performed at basal and every 60 min until the end of the study. Peripheral resistance was calculated as a ratio between mean blood pressure and the FBF.
Glucose levels were measured with spectrophotometric methods adapted to Cobas MIRA using commercial kits (ABX, Montpellier, France). Insulin and proinsulin levels were assayed with ELISA kits (Insulin ELISA, Mercodia, Uppsala, Sweden and Proinsulin ELISA, DRG, Marburg, Germany). NOx levels were evaluated through the measurement of metabolic end products, i.e., nitrite and nitrate, using enzymatic catalysis coupled with Griess reaction. c-GMP levels were measured with radioimmunoassay kits (NEN Life Science Products, Boston, Mass., USA). L-Arginine were extracted from plasma samples by cation-exchange Strata SCX 100-mg columns (Phenomenex) and assayed by high-performance liquid chromatography.

The mark [1] stands for this setting: healthy subjects, oral 6.6 g L-arginine.

Consider `N=C(N)NCCC[C@H](N)C(=O)O` [powdered L-Arginine, L-arginine], for which, under “both, human, in vivo, po”, the “Incremental area under the curve for L-Arginine (ΔAUC L-Arginine)” value stood at 15050 ± 1353 µmol/L. Further, the “Percentage incremental increase of post-ischemic blood flow vs food preparation not containing L-Arginine” value (healthy subjects, forearm plethysmography) was “significantly (p<0.02) increased”. Moreover, under setting [1], the “cGMP plasma levels vs food preparation not containing L-Arginine” value is “significantly (p<0.03) higher”, the “nitric oxide (NOx) plasma levels vs food preparation not containing L-Arginine” value was “significantly (p<0.03) higher”, the “ΔAUC NOx vs food product not containing L-Arginine” value was “significantly (p<0.04) increased” and the “ΔAUC cGMP vs food product not containing L-Arginine” value is “significantly (p<0.04) increased”.
